Data on 19 molecules can be found in patent US9346823B2, “Detection and use of low molecular-weight modulators of the cold-menthol receptor TRPM8” (BASF SE, priority 2008, dated 2016).

Usually EC50 stands for the concentration giving half of the maximal effect. The low end stands for an effect from little substance, the high end for a need for much substance.

The target in the assay is T1, human receptor TRPM8 (Homo sapiens, UniProt Q7Z2W7).
T1 construct: expressed in transfected cells
T1 sequence (Q7Z2W7 whole entry): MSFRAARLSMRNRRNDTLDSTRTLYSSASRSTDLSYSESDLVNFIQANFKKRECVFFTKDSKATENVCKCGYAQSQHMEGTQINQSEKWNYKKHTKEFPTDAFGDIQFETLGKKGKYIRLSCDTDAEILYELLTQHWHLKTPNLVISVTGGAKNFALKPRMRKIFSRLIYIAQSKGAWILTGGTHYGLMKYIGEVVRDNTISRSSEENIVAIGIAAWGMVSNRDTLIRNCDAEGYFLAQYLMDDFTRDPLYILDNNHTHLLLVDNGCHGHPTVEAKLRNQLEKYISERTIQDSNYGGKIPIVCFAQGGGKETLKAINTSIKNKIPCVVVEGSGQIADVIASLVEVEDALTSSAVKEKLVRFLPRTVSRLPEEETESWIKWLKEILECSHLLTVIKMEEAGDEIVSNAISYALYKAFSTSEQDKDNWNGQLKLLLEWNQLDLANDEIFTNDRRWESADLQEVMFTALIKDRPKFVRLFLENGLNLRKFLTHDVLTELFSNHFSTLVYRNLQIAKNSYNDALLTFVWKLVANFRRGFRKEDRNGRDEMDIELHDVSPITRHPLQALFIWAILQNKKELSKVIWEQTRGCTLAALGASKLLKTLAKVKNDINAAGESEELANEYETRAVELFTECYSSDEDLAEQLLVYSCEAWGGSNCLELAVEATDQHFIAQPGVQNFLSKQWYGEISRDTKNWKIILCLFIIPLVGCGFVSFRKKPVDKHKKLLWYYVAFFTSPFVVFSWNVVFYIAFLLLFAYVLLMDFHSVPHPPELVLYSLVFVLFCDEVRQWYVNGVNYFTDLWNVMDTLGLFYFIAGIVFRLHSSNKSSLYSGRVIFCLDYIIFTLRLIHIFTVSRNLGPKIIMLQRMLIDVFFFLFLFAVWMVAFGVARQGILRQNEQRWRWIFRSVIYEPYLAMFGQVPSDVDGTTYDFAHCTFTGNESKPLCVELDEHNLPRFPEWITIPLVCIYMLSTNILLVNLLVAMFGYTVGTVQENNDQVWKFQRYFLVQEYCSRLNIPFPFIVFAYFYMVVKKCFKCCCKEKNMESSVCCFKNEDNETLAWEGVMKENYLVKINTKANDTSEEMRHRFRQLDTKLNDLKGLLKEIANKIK
Put plainly: Assay on TRPM8 modulators: Ca2+-sensitive dye (Fluo-4) fluorescence in HEK293 cells stably transfected with human TRPM8. The settings on record: tetracycline-induced, Fluo-4AM, agonist mode, triplicate, test concentrations 0.1-200 μM. Format: cell-based. On the procedure: In this connection, “standard conditions” is understood as meaning an activity test carried out with HEK293 cells which have been transformed with human TRPM8 and loaded with calcium-sensitive dye (such as e.g. Fluo-4AM, i.e. fluo-4-acetoxymethyl ester), subsequent addition of the test compound and detection of the color change, the experimental procedure taking place at 37° C.; as described e.g. example 3 below, or in Behrendt et al. (2004) loc. cit.).
As test cell system, HEK293 cell line stably transfected with the human TRPM8 DNA (cf. above plasmid pind-M8) are produced. Preference here is given to HEK293 which offers the option, via the introduced plasmid, of inducing the TRPM8 expression by means of tetracycline.
The agonization or antagonization of the receptor can be quantified by means of a Ca^2+-sensitive dye (e.g. FURA, Fluo-4 etc.). On their own, agonists bring about an increase in the Ca^2+ signal; antagonists bring about, in the presence of e.g. menthol, a reduction in the Ca^2+ signal (in each case detected via the dye Fluo-4, which has different fluorescent properties as the result of Ca^2+ ). • a) Test Procedure:
Firstly, a fresh culture of transformed HEK cells is prepared in a manner known per se in cell culture flasks. The test cells HEK293-TRPM8 are detached from the cell culture flasks by means of trypsin and 40 000 cells/well are sown out with 100 μl of medium in 96-well plates (Greiner # 655948 poly-D-lysine-coated). To induce the receptor TRPM8, tetracycline is added to the growth medium (DMEM/HG, 10% FCS tetracycline-free, 4 mM L-glutamine, 15 μg/ml blasticidin, 100 μg/ml hygromycin B, 1 μg/ml tetracycline). On the following day, the cells are loaded with Fluo-4AM dye and the test is carried out. For this, the procedure is as follows: • addition of in each case 100 μl/well of dye solution Ca-4 kit (RB 141, Molecular Devices) to in each case 100 μl of medium (DMEM/HG, 10% FCS tetracycline-free, 4 mM L-glutamine, 15 μg/ml blasticidin, 100 μg/ml hygromycin B, 1 μg/ml tetracycline) • incubation in the hatching cabinet, 30 minutes/37° C./5% CO2, 30 minutes/RT • preparation of the test substances (various concentrations in 200 μl of HBSS buffer), and also of positive controls (various concentrations of menthol, icilin and ionomycin in 200 μl of HBSS buffer) and negative controls (only 200 μl of HBSS buffer) • addition of the test substances in amounts of 50 μl/well and measurement of the change in fluorescence (e.g. in the assay instrument FLIPR, Molecular Devices or NovoStar, BMG) at 485 nm excitation, 520 nm emission, and evaluation of the effectiveness of the various substances/concentrations and determination of the EC50 values.
The test substances are used in the assay in triplicate in concentrations of 0.1-200 μM. Normally, the compounds are kept ready in DMSO solutions and are diluted down to a maximum DMSO concentration of 2% for the assay. • b) Test Result
`CC1OC(=O)C2=C1N1CCc3ccccc3C1CC21SCCS1` (stereo not shown) [Compound 1] came in with an EC50 of 0.4 µM.

Turning to `CC1(C)CC(=O)C2=C(C1)N1CCc3ccccc3C1CC21SCCS1` (stereo not shown) [Compound 2], the EC50 worked out at 2 µM.

In turn, `COc1cnc(-c2ccccn2)nc1NC(C)C` [Compound 3] came in with an EC50 of 2 µM.

With `O=C(COc1ccc2c(c1)OCO2)N(c1ccccc1)C1CCCCC1` [Compound 4], the midpoint of the response, the EC50, lay at 2.5 µM.

The molecule `O=C(/C=C/c1ccc2c(c1)OCO2)N(c1ccccn1)C1CCCCC1` [Compound 5] registered an EC50 of 2.5 µM.

`O=C(Nc1ccc([N+](=O)[O-])cc1)Nc1ccccc1N1CCCCC1` [Compound 6]: a half-maximal effect (EC50) was put at 3.5 µM.

Turning to `CCCCCCNC(=O)N(Cc1ccccc1)c1ccccc1` [Compound 7], a half-maximal effect (EC50) was put at 4 µM.

Take `Cc1[nH]c(SC(C)C(=O)Nc2cccc(C#N)c2)nc1Cc1ccccc1` (stereo not shown) [Compound 8]: the EC50 is 5 µM.

Regarding `O=C1CN(C(=O)c2ccccc2)c2ccc(C(F)(F)F)cc2N1` [Compound 9], the 50% effective concentration (EC50) came out at 10 µM.

Consider `CC1(C)CC2CC(C)(CN2/C=N/c2sc3c(c2C#N)CCCCC3)C1` (stereo not shown) [Compound 10], for which a half-maximal response (EC50) required 10 µM.

Regarding `O=C(Nc1cccc2ccccc12)N(Cc1ccccc1)c1ccccc1` [Compound 11], the EC50 stood at 10 µM.

In turn, `COc1ccc(C(=O)Nc2sc3c(c2CN(C)C)CCCC3)cc1` [Compound 12] returned an EC50 of 10 µM.

Molecule `CC(NCc1ccc(OC(F)F)cc1)c1ccc2c(c1)CCCC2` (stereo not shown) [Compound 13] came in with an EC50 of 10 µM.

Turning to `CCOC(=O)C1CCN(Cc2cc(C(C)C)c(O)c(C(C)C)c2)CC1` [Compound 14], the response was half-maximal at 20 µM (EC50).

`Cc1ccc2c(C)c(C(=O)N(Cc3ccco3)C3CCS(=O)(=O)C3)oc2c1` (stereo not shown) [Compound 15]: the midpoint of the response, the EC50, lay at 20 µM.

The molecule `C=CCn1c(C)cc(C(=O)CSc2nc(C)cc(C(F)(F)F)c2C#N)c1C` [Compound 16] displayed an EC50 of 25 µM.

For the molecule `Cn1nc(C(F)(F)F)cc1Oc1cc(C2OCCO2)cc(Cl)n1` [Compound 17], the response was half-maximal at 50 µM (EC50).

`CC1=C/C(=N\NC(=O)CCN2CCN(c3ccccc3)CC2)CC1` [Compound 18]: a half-maximal response (EC50) required 100 µM.

`C=C1C2(C(=O)NCCc3ccccc3)CCC(C2)C1(C)C` (stereo not shown) [Compound 19] came in with an EC50 of 100 µM.
